{"source": "ChEMBL document CHEMBL3046446", "about": "“Structure and Acaricidal Activity of Pyrazolecarboxamides and Thiazole-5-carboxamides” (1994)", "type_in_all_cases": "functional", "details_in_all_cases": "120 h", "key": {"[1]": {"tested_on": "Tetranychus urticae", "experiment": "Acaricidal activity against Tetranychus urticae (two-spotted spider mite) in kidney bean leaf assessed as mortality at 200 ppm at 25 degC measured after 5 days"}, "[2]": {"tested_on": "Tetranychus urticae", "experiment": "Acaricidal activity against Tetranychus urticae (two-spotted spider mite) in kidney bean leaf assessed as mortality at 500 ppm at 25 degC measured after 5 days"}, "[3]": {"tested_on": "Tetranychus urticae", "experiment": "Acaricidal activity against Tetranychus urticae (two-spotted spider mite) in kidney bean leaf assessed as mortality at 50 ppm at 25 degC measured after 5 days"}, "[4]": {"tested_on": "Tetranychus urticae", "experiment": "Acaricidal activity against Tetranychus urticae (two-spotted spider mite) in kidney bean leaf assessed as mortality at 3.1 ppm at 25 degC measured after 5 days"}, "[5]": {"tested_on": "Tetranychus urticae", "experiment": "Acaricidal activity against Tetranychus urticae (two-spotted spider mite) in kidney bean leaf assessed as mortality at 12.5 ppm at 25 degC measured after 5 days"}}}
{"smiles": "Cc1cc(C(=O)NCc2ccc(C(C)(C)C)cc2)n(C)n1", "values": [{"measurement": "mortality at 200 ppm", "setting": "[1]", "value": 100, "unit": "%"}, {"measurement": "mortality at 500 ppm", "setting": "[2]", "value": 100, "unit": "%"}, {"measurement": "mortality at 50 ppm", "setting": "[3]", "value": 100, "unit": "%"}, {"measurement": "mortality at 3.1 ppm", "setting": "[4]", "value": 0, "unit": "%"}, {"measurement": "mortality at 12.5 ppm", "setting": "[5]", "value": 30, "unit": "%"}]}
{"smiles": "Cc1ncsc1C(=O)NCc1ccc(C(C)(C)C)cc1", "values": [{"measurement": "mortality at 200 ppm", "setting": "[1]", "value": 0, "unit": "%"}, {"measurement": "mortality at 500 ppm", "setting": "[2]", "value": 30, "unit": "%"}, {"measurement": "mortality at 50 ppm", "setting": "[3]", "value": 0, "unit": "%"}, {"measurement": "mortality at 3.1 ppm", "setting": "[4]", "value": 0, "unit": "%"}, {"measurement": "mortality at 12.5 ppm", "setting": "[5]", "value": 0, "unit": "%"}]}
{"smiles": "Cc1nc(C)c(C(=O)NCc2ccc(C(C)(C)C)cc2)s1", "values": [{"measurement": "mortality at 200 ppm", "setting": "[1]", "value": 100, "unit": "%"}, {"measurement": "mortality at 500 ppm", "setting": "[2]", "value": 100, "unit": "%"}, {"measurement": "mortality at 50 ppm", "setting": "[3]", "value": 100, "unit": "%"}, {"measurement": "mortality at 3.1 ppm", "setting": "[4]", "value": 0, "unit": "%"}, {"measurement": "mortality at 12.5 ppm", "setting": "[5]", "value": 0, "unit": "%"}]}
{"smiles": "CCc1cc(C(=O)NCc2ccc(C(C)(C)C)cc2)nn1C", "values": [{"measurement": "mortality at 200 ppm", "setting": "[1]", "value": 0, "unit": "%"}, {"measurement": "mortality at 500 ppm", "setting": "[2]", "value": 0, "unit": "%"}, {"measurement": "mortality at 50 ppm", "setting": "[3]", "value": 0, "unit": "%"}, {"measurement": "mortality at 3.1 ppm", "setting": "[4]", "value": 0, "unit": "%"}, {"measurement": "mortality at 12.5 ppm", "setting": "[5]", "value": 0, "unit": "%"}]}
{"smiles": "CCc1nc(C)c(C(=O)N(C)Cc2ccc(C(C)(C)C)cc2)s1", "values": [{"measurement": "mortality at 200 ppm", "setting": "[1]", "value": 100, "unit": "%"}, {"measurement": "mortality at 500 ppm", "setting": "[2]", "value": 100, "unit": "%"}, {"measurement": "mortality at 50 ppm", "setting": "[3]", "value": 100, "unit": "%"}, {"measurement": "mortality at 3.1 ppm", "setting": "[4]", "value": 0, "unit": "%"}, {"measurement": "mortality at 12.5 ppm", "setting": "[5]", "value": 30, "unit": "%"}]}
{"smiles": "CCn1ncc(C(=O)NCc2ccc(C(C)(C)C)cc2)c1C", "values": [{"measurement": "mortality at 200 ppm", "setting": "[1]", "value": 0, "unit": "%"}, {"measurement": "mortality at 500 ppm", "setting": "[2]", "value": 0, "unit": "%"}, {"measurement": "mortality at 50 ppm", "setting": "[3]", "value": 0, "unit": "%"}, {"measurement": "mortality at 3.1 ppm", "setting": "[4]", "value": 0, "unit": "%"}, {"measurement": "mortality at 12.5 ppm", "setting": "[5]", "value": 0, "unit": "%"}]}
{"smiles": "CCc1cc(C(=O)NCc2ccc(C(C)(C)C)cc2)n(C)n1", "values": [{"measurement": "mortality at 200 ppm", "setting": "[1]", "value": 100, "unit": "%"}, {"measurement": "mortality at 500 ppm", "setting": "[2]", "value": 100, "unit": "%"}, {"measurement": "mortality at 50 ppm", "setting": "[3]", "value": 100, "unit": "%"}, {"measurement": "mortality at 3.1 ppm", "setting": "[4]", "value": 0, "unit": "%"}, {"measurement": "mortality at 12.5 ppm", "setting": "[5]", "value": 100, "unit": "%"}]}
{"smiles": "Cc1nn(C)cc1C(=O)NCc1ccc(C(C)(C)C)cc1", "values": [{"measurement": "mortality at 200 ppm", "setting": "[1]", "value": 80, "unit": "%"}, {"measurement": "mortality at 500 ppm", "setting": "[2]", "value": 100, "unit": "%"}, {"measurement": "mortality at 50 ppm", "setting": "[3]", "value": 0, "unit": "%"}, {"measurement": "mortality at 3.1 ppm", "setting": "[4]", "value": 0, "unit": "%"}, {"measurement": "mortality at 12.5 ppm", "setting": "[5]", "value": 0, "unit": "%"}]}
{"smiles": "CCn1cc(C(=O)NCc2ccc(C(C)(C)C)cc2)c(C)n1", "values": [{"measurement": "mortality at 200 ppm", "setting": "[1]", "value": 100, "unit": "%"}, {"measurement": "mortality at 500 ppm", "setting": "[2]", "value": 100, "unit": "%"}, {"measurement": "mortality at 50 ppm", "setting": "[3]", "value": 100, "unit": "%"}, {"measurement": "mortality at 3.1 ppm", "setting": "[4]", "value": 0, "unit": "%"}, {"measurement": "mortality at 12.5 ppm", "setting": "[5]", "value": 30, "unit": "%"}]}
{"smiles": "CCn1nc(C)cc1C(=O)NCc1ccc(C(C)(C)C)cc1", "values": [{"measurement": "mortality at 200 ppm", "setting": "[1]", "value": 0, "unit": "%"}, {"measurement": "mortality at 500 ppm", "setting": "[2]", "value": 0, "unit": "%"}, {"measurement": "mortality at 50 ppm", "setting": "[3]", "value": 0, "unit": "%"}, {"measurement": "mortality at 3.1 ppm", "setting": "[4]", "value": 0, "unit": "%"}, {"measurement": "mortality at 12.5 ppm", "setting": "[5]", "value": 0, "unit": "%"}]}
